{"source": "paper PMC10285648", "about": "“iTAG an optimized IMiD-induced degron for targeted protein degradation in human and murine cells” (iScience, 2023)", "key": {"[1]": {"system": "cMYC-EGFP-DCD2", "assay": "Flow cytometry of EGFP signal, cMYC-EGFP-DCD2 in HMEC", "format": "cell-based, human", "settings": "10uM, 4h", "from_the_text": "To systematically delineate the optimal DCD/degrader combination for targeted protein degradation, we undertook a matrix approach evaluating all 23 DCD tags against 6 small molecule degraders. First, we fused the DCD tags with Enhanced Green Fluorescent Protein (EGFP) and a target protein of interest, focusing initially on the proto-oncogene cMYC (Figure 1A). cMYC function has been extensively studied and downstream perturbations of cMYC loss are well characterised,[29]^,[30]^,[31] providing a good reference to test the iTAG system. […]\nFigure 1 Design and experimental evaluation of the DCD tags (A) Representation of the experimental pipeline used to evaluate the different DCD constructs. […] Median EGFP intensity was measured in each condition using flow cytometry (3 independent experiments, normalized to the control and represented as mean ± SD). […] Target loss was evaluated either by measuring EGFP median intensity using flow cytometry or western blotting for cMYC protein (3 independent experiments, normalized to the control and represented as mean ± SD). […] Target loss was evaluated as in (D) (3 independent experiments, normalized to the control and represented as mean ± SD). […]"}, "[2]": {"system": "cMYC-EGFP-DCD19", "assay": "Flow cytometry of EGFP signal, cMYC-EGFP-DCD19 in HMEC", "format": "cell-based, human", "settings": "10uM, 4h", "from_the_text": "(§1) To systematically delineate the optimal DCD/degrader combination for targeted protein degradation, we undertook a matrix approach evaluating all 23 DCD tags against 6 small molecule degraders. […] To control for any potential off-target effects of the IMiD/CeLMOD agents that could indirectly affect the target of interest, we designed controls in which the specific DCD and the EGFP sequences were interspaced by a P2A ribosomal “skipping” sequence,[32] leading to separate translation of the DCD and the target protein (Figure 1A). These constructs were then inserted into a doxycycline-inducible lentiviral vector system and stably expressed in hTERT immortalized human mammary epithelial cells (HMEC), a suitable model to assess the functional consequences of cMYC degradation. cMYC was tagged at the C-terminus end for the initial screening experiments.\n(§2) Figure 1 Design and experimental evaluation of the DCD tags (A) Representation of the experimental pipeline used to evaluate the different DCD constructs. […] Median EGFP intensity was measured in each condition using flow cytometry (3 independent experiments, normalized to the control and represented as mean ± SD). […] The protein lysates were probed for cMYC levels using western blotting. […] Target loss was evaluated either by measuring EGFP median intensity using flow cytometry or western blotting for cMYC protein (3 independent experiments, normalized to the control and represented as mean ± SD). […] Target loss was evaluated as in (D) (3 independent experiments, normalized to the control and represented as mean ± SD). […] Protein lysates were collected and probed for cMYC and p21 using western blotting. […] Protein lysates were collected and probed for cMYC and p21 using western blotting. […] These were left out as controls with no test substance.\n(§3) Following degrader treatment cells were collected and DAPI was added to the cell suspension at 1 μg/mL to allow the exclusion of dead cells. EGFP signal was measured using BD LSR II flow cytometer (BD Biosciences). FlowJo 10 Software (FlowJo) was used for data processing."}, "[3]": {"system": "cMYC-EGFP-DCD23", "assay": "Degradation of cMYC-EGFP-DCD23 in HMEC (flow cytometry, western blotting)", "format": "cell-based, human", "settings": "EGFP cellular degradation data for the DCD23, related to Figure 1 (10uM, 4h)", "from_the_text": "as §1, §2, §3\nCells were lysed with SDS lysis buffer (2% SDS, 10% Glycerol, 50mM Tris pH 6.8) and boiled at 95°C for 30min. Protein concentration was measured using Pierce BCA Protein Assay Kit (ThermoFischer) following manufacturer’s recommendations. Samples were ran in NuPAGETM 10% Bis-Tris Midi electrophoresis gels (Invitrogen) using NuPAGETM MES SDS running buffer (ThermoFischer Scientific).\nFor western blotting membranes were blocked in a solution of 5% (w/v) bovine serum albumin (BSA; Sigma-Aldrich) dissolved in TBS-0.1% Tween 20 (Sigma-Aldrich) then incubated at 4°C overnight with the primary antibodies diluted in 5% (w/v) BSA/TBS-T. The membranes where then washed and incubated with anti-mouse and/or anti-rabbit secondary antibodies (LI-COR Biosciences) for 2h at RT diluted in 5% (w/v) BSA/TBS-T then washed and imaged using the LI-COR Odyssey (LI-COR Biosciences). Images were analyzed using Image Studio Lite software (LI-COR Biosciences)."}, "[4]": {"system": "HMEC, HEK293T, MDA-MB-231, Kelly cells", "assay": "Cell viability assay (CellTiter-Blue)", "format": "cell-based, human", "settings": "5 days treatment", "procedure": "By endpoint, CellTiter-Blue reagent (Promega) was added to each well, incubated for 3 h at 37°C and absorbance was measured with a plate reader at 570nm. Average background absorbance value was subtracted from all readings when plotting the viability curve."}, "[5]": {"biological_target": "T1, CRBN/DDB1 complex (Homo sapiens, UniProt Q96SW2)", "T1 construct": "WT full length CRBN/DDB1 complex was added; made in house; host or cells: Sf9 insect cells (baculovirus)", "T1 sequence (Q96SW2 whole entry)": "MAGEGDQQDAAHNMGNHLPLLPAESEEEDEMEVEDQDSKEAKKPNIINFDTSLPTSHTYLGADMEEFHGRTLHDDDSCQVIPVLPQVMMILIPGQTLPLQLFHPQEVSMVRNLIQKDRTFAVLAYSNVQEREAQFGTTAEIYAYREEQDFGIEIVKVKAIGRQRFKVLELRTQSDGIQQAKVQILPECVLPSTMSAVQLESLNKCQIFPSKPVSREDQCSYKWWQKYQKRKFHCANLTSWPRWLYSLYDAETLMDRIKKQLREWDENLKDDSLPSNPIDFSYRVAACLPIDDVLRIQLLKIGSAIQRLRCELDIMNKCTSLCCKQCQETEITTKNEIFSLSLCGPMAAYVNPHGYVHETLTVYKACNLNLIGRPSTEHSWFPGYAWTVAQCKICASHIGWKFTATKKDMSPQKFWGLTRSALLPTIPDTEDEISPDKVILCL", "T1 sequence (Q16531 whole entry partner)": "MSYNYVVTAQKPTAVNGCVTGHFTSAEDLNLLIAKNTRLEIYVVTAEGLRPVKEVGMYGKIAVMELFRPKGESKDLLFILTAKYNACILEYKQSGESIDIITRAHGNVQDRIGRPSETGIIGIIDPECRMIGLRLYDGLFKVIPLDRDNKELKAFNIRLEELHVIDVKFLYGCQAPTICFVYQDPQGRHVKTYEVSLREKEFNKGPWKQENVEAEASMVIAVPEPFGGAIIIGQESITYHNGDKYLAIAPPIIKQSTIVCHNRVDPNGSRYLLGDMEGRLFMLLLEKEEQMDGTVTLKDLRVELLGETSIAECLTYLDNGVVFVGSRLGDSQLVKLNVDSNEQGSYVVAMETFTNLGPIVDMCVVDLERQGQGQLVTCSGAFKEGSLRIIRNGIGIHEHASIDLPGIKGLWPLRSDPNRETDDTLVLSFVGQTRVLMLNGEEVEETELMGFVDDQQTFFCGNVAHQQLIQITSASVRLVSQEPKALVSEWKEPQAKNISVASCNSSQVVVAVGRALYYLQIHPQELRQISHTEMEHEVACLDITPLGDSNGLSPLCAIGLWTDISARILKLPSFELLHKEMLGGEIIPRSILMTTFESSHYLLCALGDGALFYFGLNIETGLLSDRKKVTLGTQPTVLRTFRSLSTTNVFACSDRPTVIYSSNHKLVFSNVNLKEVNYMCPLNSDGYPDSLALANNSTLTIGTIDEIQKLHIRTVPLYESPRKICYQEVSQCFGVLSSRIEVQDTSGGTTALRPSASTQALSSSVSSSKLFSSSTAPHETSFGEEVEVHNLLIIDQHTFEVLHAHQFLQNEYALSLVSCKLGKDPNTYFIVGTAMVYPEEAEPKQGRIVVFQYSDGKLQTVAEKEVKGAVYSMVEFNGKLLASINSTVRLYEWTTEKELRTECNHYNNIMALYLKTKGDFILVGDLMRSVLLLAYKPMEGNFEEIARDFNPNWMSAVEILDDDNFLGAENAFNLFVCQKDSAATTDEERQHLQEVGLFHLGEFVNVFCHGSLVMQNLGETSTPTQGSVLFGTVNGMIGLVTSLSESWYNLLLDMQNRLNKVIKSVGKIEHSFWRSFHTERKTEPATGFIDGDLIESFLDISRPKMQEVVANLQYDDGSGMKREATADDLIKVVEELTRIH", "assay": "IMiD-based fluorescence polarisation assay", "format": "binding", "settings": "displacement of Sulfo-Cy5 IMiD probe (5 nM), 80 nM CRBN/DDB1; read-out: FP IC50", "quoted_text": "First, we wanted to confirm that the IMiD/CELMoDs used in our study were effectively binding to CRBN and to estimate their binding affinities. […] WT full length CRBN/DDB1 complex was added with a Tempest liquid handler (Formulatrix, USA) to all wells to a final concentration of 80 nM, except for low controls where WT CRBN was substituted with mutant [MUT]-[MUT] CRBN (mutant unable to bind the probe). The Echo was also used to add 5 nM final concentration of Sulfo-Cy5 fluorescent IMiD-based probe (Figure S6A) to each well. Plates were sealed, centrifuged at 200 g for 1 min and stored overnight at 4°C. Fluorescence Polarization and total fluorescence were read using a PHERAstar FSX plate reader (BMG Labtech, Germany)."}}}
{"compound": "Cc1ccc(NC(=O)NCc2ccc3c(c2)CN(C2CCC(=O)NC2=O)C3=O)cc1Cl", "note": "(centres unmarked) [CC885]", "values": [{"measurement": "change of EGFP signal", "setting": "[1]", "result": "strong decrease in EGFP signal"}, {"measurement": "loss of cMYC-EGFP signal", "setting": "[2]", "result": "robust loss of cMYC-EGFP signal"}, {"measurement": "Degradation as Log2 FC relative to DMSO", "setting": "[3]", "result": -1.27, "unit": "Log2 FC"}, {"measurement": "cellular toxicity", "setting": "[4]", "result": "significant cellular toxicity"}, {"measurement": "IC50", "setting": "[5]", "result": 107, "unit": "nM"}]}
